According to article PMC8344021, “Discovery of Small Molecule Bak Activator for Lung Cancer Therapy” (Theranostics, 2021):

Target: T1, human Bak protein (Homo sapiens, UniProt Q16611)
T1 construct: purchased Creative Biomart BAK1-26166TH
Assay: Competitive fluorescence polarization (FP) assay with fluorescent Bak BH3 peptide
Format: binding
Conditions: purified human Bak protein, fluorescent Bak BH3 domain peptide; mean ± SD, n = 3
Text: To confirm the binding of BKA-073 with Bak, we first conducted a competitive fluorescence polarization (FP) assay using purified human Bak protein, fluorescent Bak BH3 domain peptide, and BKA-073 as described, [37]-[40]. […] There are multiple amino acid differences in the BH3 domains between Bak and other Bcl2 family members, which helps to explain why BKA-073 only binds to Bak but not to other Bcl2 family members (i.e. Bax, Bcl2, Bcl-XL, Bcl-w and Mcl-1). In addition to the FP assay, isothermal titration calorimetry (ITC) was also employed to measure Bak/BKA-073 binding. […] In addition to human Bak/BKA-073 binding, we measured mouse Bak/BKA-073 binding using ITC.
(1 x 10^5 cells) was transferred to a 5 ml culture tube, followed by the addition of 5 μl of FITC Annexin V and 5 μl propidium iodide (PI). […] Samples were analyzed by flow cytometry (BD FACSCantoTMII, BD Biosciences, San Jose, CA). ∆% cell death was calculated with the formula: (% cell death treated - % cell death non-treated) as described […]
Fluorescence polarization (FP) assay
Fluorescence polarization assay was carried out as described previously. […] The FP values (in millipolarization units) were measured using a fluorescence microplate reader at 485/530 nm (Gemini XPS, Molecular Devices). Data analysis and inhibit ory constant (Ki) value was determined by GraphPad prism software as described. […]

T1 sequence (Q16611 whole entry): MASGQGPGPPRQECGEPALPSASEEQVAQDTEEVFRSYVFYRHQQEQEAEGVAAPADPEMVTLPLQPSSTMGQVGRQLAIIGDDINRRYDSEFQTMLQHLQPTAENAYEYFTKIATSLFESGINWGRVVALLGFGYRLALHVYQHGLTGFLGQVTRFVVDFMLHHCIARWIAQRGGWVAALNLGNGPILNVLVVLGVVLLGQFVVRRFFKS

COc1ccc2nc3ccccc3c(NCCNCC(C)O)c2c1 (stereo not shown) [BKA-073]
Ki: 72.3 ± 5.96 nM
